The values that follow come from ChEMBL document CHEMBL1201862, “PubChem BioAssay data set” (2004).

Structures are written as SMILES.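 Growth conditions: 96-well plates. Treatment: test compound, 48 hours, 5 concentrations. Analysis: linear interpolation between bracketing concentrations; unreached endpoints set to highest concentration. GI50: concentration for 50% inhibition of growth.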 Active and inactive are the calls of the source. Cut-off read from the data, not from the text of the source: active = GI50 up to about 1.1 µM and inactive = higher.

Some test systems named below: NCI-H23; HOP-92; OVCAR-4; NCI-H522; SF-295; NCI-H226; SNB-19; CAKI-1; SK-MEL-5; SN12C; UACC-257; KM-20L2; EKVX; OVCAR-5; SF-539; HCC 2998; HOP-62; SR; BT-549; MDA-MB-435.
Assay in all cases: NCI tumour cell line growth inhibition, 48 h

Consider `COc1c(CC(C)=O)ccc2c1C(=O)c1ccc(C=O)c(OC(C)=O)c1C2=O`, for which the GI50 with NCI-H23 is > 10 µM (inactive); in the experiment with HOP-92 it was 18.9 µM (inactive); in the experiment with OVCAR-4 it was 14.6 µM (inactive); in the experiment on NCI-H522 it was 2.15 µM (inactive); in the experiment with SF-295, 21.2 µM (inactive); in the experiment on NCI-H226 it was 15.7 µM (inactive). Besides, the GI50 in the experiment on SNB-19 was 19.9 µM (inactive); with CAKI-1, 17.8 µM (inactive); with SK-MEL-5, 14.1 µM (inactive); in the experiment with SN12C, 12.9 µM (inactive); with UACC-257, 14.3 µM (inactive); in the experiment on KM-20L2, 14.9 µM (inactive). In addition, the GI50 is 23.3 µM (inactive) in the experiment with EKVX, 15.3 µM (inactive) in the experiment with OVCAR-5, 7.89 µM (inactive) with SF-539 and 11.5 µM (inactive) with HCC 2998.

In the case of `CC1CCC(C(C)(C)c2ccccc2)C(=O)C1` (stereo not drawn), the GI50 was 18.7 µM (inactive) in the experiment on HOP-92; > 100 µM (inactive) in the experiment with OVCAR-4; > 100 µM (inactive) in the experiment with SF-295; > 100 µM (inactive) in the experiment with HOP-62; > 100 µM (inactive) with SNB-19; 74.8 µM (inactive) in the experiment on CAKI-1. In addition, the GI50 in the experiment with SK-MEL-5, with SN12C, in the experiment with UACC-257, with KM-20L2, in the experiment with EKVX and in the experiment on OVCAR-5 was > 100 µM (inactive) in each case. Further, the GI50 with SF-539 and in the experiment on HCC 2998 was > 100 µM (inactive) throughout.

As to `COc1c2c(c(OC)c3c(=O)cc(C/C(=N/NC(=O)C[n+]4ccccc4)C(=O)Nc4cc(C)ccc4C)oc13)OCO2`, the GI50 with NCI-H23, in the experiment with HOP-92, with OVCAR-4, in the experiment with NCI-H522, in the experiment with HOP-62 and with SNB-19 was > 100 µM (inactive) in each case. The GI50 with CAKI-1, with SK-MEL-5, with SN12C, with UACC-257, in the experiment with KM-20L2 and in the experiment with EKVX was > 100 µM (inactive) in each case. Also, the GI50 in the experiment on OVCAR-5, in the experiment on SF-539 and in the experiment with HCC 2998 was > 100 µM (inactive) throughout.

`COC(=O)CCC(C)[C@H]1CCC2C3C(C[C@H](OC(C)=O)[C@@]21C)[C@@]1(C)CCC2(C[C@H]1C[C@H]3OC(C)=O)OOC1(CCCCC1)OO2` (stereo partly drawn): the GI50 was 4.26 µM (inactive) in the experiment on SR; 12.7 µM (inactive) in the experiment on NCI-H23; 1.02 µM (active) in the experiment with HOP-92; 15.8 µM (inactive) in the experiment with OVCAR-4; 9.33 µM (inactive) with NCI-H522; 20.7 µM (inactive) with SF-295. Also, the GI50 with BT-549 was 40.6 µM (inactive); in the experiment on HOP-62, 2.99 µM (inactive); in the experiment with NCI-H226, 17.7 µM (inactive); with SNB-19 it was 42.2 µM (inactive); with CAKI-1, 41.1 µM (inactive); in the experiment on SK-MEL-5 it was 19.4 µM (inactive). Also, the GI50 is 36.6 µM (inactive) with SN12C; 19.1 µM (inactive) with UACC-257; 36.2 µM (inactive) with MDA-MB-435; 4.04 µM (inactive) in the experiment with EKVX; 43.5 µM (inactive) in the experiment on OVCAR-5; 60.1 µM (inactive) with SF-539. Also, in the experiment on HCC 2998, the GI50 was 28.3 µM (inactive).

As to `CC(C)(c1ccccc1)c1ccc(Oc2ccc3c(c2)-c2nc-3nc3[nH]c(nc4nc(nc5[nH]c(n2)c2ccc(Oc6ccc(C(C)(C)c7ccccc7)cc6)cc52)-c2cc(Oc5ccc(C(C)(C)c6ccccc6)cc5)ccc2-4)c2ccc(Oc4ccc(C(C)(C)c5ccccc5)cc4)cc32)cc1`, the GI50 in the experiment with NCI-H23 is > 100 µM (inactive); in the experiment with HOP-92 it was 17.8 µM (inactive); with NCI-H522, 86.9 µM (inactive); in the experiment with HOP-62 it was 64.6 µM (inactive); in the experiment with SNB-19, 92 µM (inactive); in the experiment with SK-MEL-5, > 100 µM (inactive). The GI50 was > 100 µM (inactive) in the experiment on UACC-257; > 100 µM (inactive) in the experiment with KM-20L2; > 100 µM (inactive) in the experiment with EKVX; > 100 µM (inactive) in the experiment with OVCAR-5; 35 µM (inactive) in the experiment with SF-539; > 100 µM (inactive) in the experiment on HCC 2998.

Take `COc1ccc2c(c1)N=C1CSC(c3cccc(Br)c3)N1C2` (stereo not drawn): the GI50 is 4.52 µM (inactive) in the experiment on SR; 17.9 µM (inactive) in the experiment with NCI-H23; 16.7 µM (inactive) in the experiment with HOP-92; 15.9 µM (inactive) in the experiment with OVCAR-4; 14.4 µM (inactive) in the experiment on NCI-H522; 14.2 µM (inactive) with SF-295. Moreover, the GI50 with BT-549 was 12.4 µM (inactive); in the experiment with HOP-62, 22.8 µM (inactive); in the experiment with NCI-H226, 22.9 µM (inactive); with SNB-19, 22.5 µM (inactive); in the experiment on CAKI-1, 6.19 µM (inactive); in the experiment with SK-MEL-5, 10.4 µM (inactive). The GI50 with SN12C is 19.5 µM (inactive); in the experiment with UACC-257 it was 10.5 µM (inactive); with MDA-MB-435, 10.5 µM (inactive); in the experiment on EKVX it was 13.2 µM (inactive); in the experiment with OVCAR-5, 18.8 µM (inactive); in the experiment with SF-539 it was 17.9 µM (inactive). In addition, the GI50 with HCC 2998 was 6.43 µM (inactive).

For `CCN1C(=O)C(=CN)C(=O)N(CC)C1=O`, the GI50 in the experiment on NCI-H23 was > 100 µM (inactive); in the experiment with HOP-92 it was 38.8 µM (inactive); with OVCAR-4, > 100 µM (inactive); in the experiment with NCI-H522 it was > 100 µM (inactive); in the experiment on SF-295, > 100 µM (inactive); with HOP-62 it was > 100 µM (inactive). The GI50 in the experiment with NCI-H226, in the experiment on SNB-19, in the experiment on CAKI-1, in the experiment on SK-MEL-5, with SN12C and with UACC-257 was > 100 µM (inactive) throughout. Moreover, the GI50 with KM-20L2, with EKVX, with OVCAR-5, in the experiment with SF-539 and in the experiment on HCC 2998 was > 100 µM (inactive) each time.

Consider `O=C1/C(=C/c2ccc(O)cc2)CCC1CNc1ccccc1` (stereo not drawn), for which the GI50 with SR is 1.74 µM (inactive); with NCI-H23, 14.3 µM (inactive); with HOP-92, 14.4 µM (inactive); with OVCAR-4 it was 19.1 µM (inactive); in the experiment with NCI-H522, 2.4 µM (inactive); with SF-295 it was 15.9 µM (inactive). Besides, the GI50 is 14.5 µM (inactive) in the experiment on BT-549; 18.3 µM (inactive) in the experiment with HOP-62; 17.9 µM (inactive) in the experiment on NCI-H226; 16.3 µM (inactive) in the experiment on SNB-19; 12.5 µM (inactive) in the experiment on CAKI-1; 16.8 µM (inactive) in the experiment with SK-MEL-5. The GI50 with SN12C was 15 µM (inactive); in the experiment on UACC-257 it was 16.7 µM (inactive); with MDA-MB-435, 18.7 µM (inactive); with EKVX it was 18.3 µM (inactive); in the experiment with OVCAR-5, 17.7 µM (inactive); with SF-539, 16.1 µM (inactive). The GI50 in the experiment on HCC 2998 was 18.8 µM (inactive).

Regarding `C=CCOC(=O)C[C@H](NC(=O)[C@H](Cc1ccc(O)cc1)NCC(F)(F)F)C(=O)OCC=C`, the GI50 was 34 µM (inactive) in the experiment on SR; 37.5 µM (inactive) in the experiment on NCI-H23; > 100 µM (inactive) in the experiment with HOP-92; > 100 µM (inactive) with OVCAR-4; 25 µM (inactive) in the experiment on NCI-H522; > 100 µM (inactive) in the experiment with SF-295. The GI50 in the experiment on BT-549 was > 100 µM (inactive); with HOP-62 it was > 100 µM (inactive); with NCI-H226, > 100 µM (inactive); in the experiment with SNB-19, > 100 µM (inactive); with CAKI-1, > 100 µM (inactive); in the experiment with SK-MEL-5, 30.5 µM (inactive). Moreover, the GI50 with SN12C is 45 µM (inactive); in the experiment on UACC-257, 20.8 µM (inactive); in the experiment on MDA-MB-435, 41.3 µM (inactive); in the experiment with EKVX, 25.5 µM (inactive); with OVCAR-5, > 100 µM (inactive); with SF-539, 57.8 µM (inactive). In addition, the GI50 with HCC 2998 is 83.4 µM (inactive).

In the case of `CC(=O)c1csc2c1C(=O)c1ccccc1C2=O`, the GI50 with SR was 3.66 µM (inactive); in the experiment on NCI-H23, 1.26 µM (inactive); in the experiment on HOP-92, 30.5 µM (inactive); with OVCAR-4, 6.04 µM (inactive); in the experiment on NCI-H522, 1.78 µM (inactive); with SF-295 it was 1.55 µM (inactive). Also, the GI50 was 1.62 µM (inactive) in the experiment with BT-549; 1.97 µM (inactive) in the experiment with HOP-62; 1.58 µM (inactive) in the experiment on NCI-H226; 2.12 µM (inactive) with SNB-19; 3.99 µM (inactive) with CAKI-1; 0.18 µM (active) in the experiment on SK-MEL-5. For the same molecule, the GI50 is 2.25 µM (inactive) with SN12C; 1.46 µM (inactive) in the experiment on UACC-257; 0.9 µM (active) in the experiment with MDA-MB-435; 5.78 µM (inactive) in the experiment on EKVX; 2.35 µM (inactive) in the experiment with OVCAR-5; 2.08 µM (inactive) with SF-539. In the experiment on HCC 2998, the GI50 is 1.75 µM (inactive).

For the molecule `COC(=O)CNC(=O)/C=C/[C@H](O[Si](C)(C)C(C)(C)C)[C@H](/C=C/C(=O)NCC(=O)OC)O[Si](C)(C)C(C)(C)C`, the GI50 with SR, in the experiment on NCI-H23, in the experiment on HOP-92, in the experiment on OVCAR-4, in the experiment on NCI-H522 and in the experiment with SF-295 was > 25 µM (inactive) throughout. The GI50 in the experiment with BT-549, in the experiment on HOP-62, in the experiment on NCI-H226, with SNB-19, in the experiment on CAKI-1 and with SK-MEL-5 was > 25 µM (inactive) in each case. The GI50 with SN12C, in the experiment with UACC-257, with MDA-MB-435, in the experiment on EKVX, with OVCAR-5 and with SF-539 was > 25 µM (inactive) throughout. The GI50 with HCC 2998 was > 25 µM (inactive).
